Results from publication PMC9088311, “Cyclic Thiosulfonates for Thiol-Mediated Uptake: Cascade Exchangers, Transporters, Inhibitors” (JACS Au, 2022).
In brackets after ≈: the same amount, converted by molar mass. Where two headings read alike, the source gives them in different places.

How the values were obtained:
HeLa Kyoto (HK) cells = test: Cellular uptake of fluorescent transporters (HCHT imaging, SDCM); type: cell-based, Human; details: 10, 20, 50 μM transporter
Method: Cellular uptake was measured by automated high-content high-throughput (HCHT) imaging.[51] This method provides access to biologically meaningful and statistically relevant data from thousands of cells within a very short time. For the uptake monitoring, HeLa Kyoto (HK) cells in multiwell plates were incubated with the fluorescent transporters 28–30 for 1 h, washed, and imaged by spinning disk confocal microscopy (SDCM) to quantify the fluorescent transporters that have entered the cells. […] The better activity of CTOs 28 compared to 29 was consistent with the concept of hydrophobic directing groups, expected to guide CTOs into an aprotic environment within membranes or proteins to activate the sulfinate exchanger and thus turn on dynamic covalent exchange cascades with cellular partners (Figure 2D). The passive diffusion of transporter 28 across the membrane is conceivable but unlikely because this process can be inhibited by other CAXs (see the next section).
4. High-Content High-Throughput (HCHT) Inhibitor Screening […]
The distribution of fluorescence stained cells was analyzed without fixing using an IXM-C automated microscope. 4 images per well were recorded using 10× objective lens, and fluorescent images were acquired with three channels, blue with 377/50 nm excitation filter and 477/60 nm emission filter, green for FITC transporter with 475/34 nm excitation filter and […]

HK cells, transporter 31 [1] = test: HCHT imaging: inhibition of cytosolic delivery of ETP transporter 31; type: cell-based, Human; details: inhibitor 1 h; for IC15: read-out: MIC (concentration needed to reach 15% inhibition), transporter 31 10 μM
Method: (§1) Uptake inhibition was measured by the automated HCHT imaging used already to elaborate on cytosolic delivery. For inhibitor screening, HK cells in multiwell plates were incubated with increasing concentrations of inhibitors, followed by fluorescent transporters 28, 31, and 32 at a constant concentration. […] If inhibitors are removed before the addition of transporters 28, 31, and 32, the method is referred to as “pre-incubation”. This is of interest to minimize exchange between the transporter and the inhibitor but is often problematic because dynamic covalent exchange between the inhibitor and cellular target can also be reversed and thus lost. The complementary “co-incubation” operates without inhibitor removal before the addition of transporters 28, 31, and 32.
(§2) 536/40 nm emission filter, and red with 531/40 nm excitation filter and 593/40 nm emission […]
(§3) 4.3. HCHT Inhibitor Screening
(§4) Pre-Incubation Method. As in ref. S1. HeLa Kyoto cells were seeded at 8 ×10^4 cells/mL in FluoroBrite DMEM + 10% FBS on μ-Plate 96-well Black ibiTreat sterile and incubated at 37 °C with 5% CO 2 for 24 h. Then, the medium was removed and cells were washed with PBS ([…]), fresh FluoroBrite DMEM medium (4 × 150 μL/well) was added into the cells using a plate washer (Biotek EL406®), keeping a final volume of 135 μL/well. Different concentrations of the inhibitors were prepared by serial dilution with 10% final concentration DMSO (10× in PBS). The solution of compounds 4 and 33 was prepared final DMSO concentration of 10% in each dilution (10× in PBS). These inhibitor solutions (10× final concentration), transporter 28 (10× in DMEM), transporters 31 and 32 (10× in PBS) a solution of HOE (100 μg/mL) and PI (10 μg/mL) in PBS were prepared freshly in a 96-well V-bottom plate before adding to the cells. The inhibitor solutions from the V-bottom plate were added to the cells (15 μL/well) in a final volume of 150 μL/well using an electronic multichannel pipette and cells were incubated for 1 h at 37 °C with 5% CO 2. After this incubation, cells were washed again with PBS and DMEM using the plate washer (in the way mentioned above), and transporter 28 , 31 or 32 from the V-bottom plate was added (15 μL/well) to the cells in a final volume of 150 μL/well. A final concentration of each transporter 28 , 31 and 32 was 5 μM, 10 μM and 0.5 μM, respectively, except for the control wells, where only PBS was added (15 μL/well). Cells treated with transporter 28 or 31 were incubated for 30 min, and cells treated with 32 were incubated for 2 h at 37 °C with 5% CO 2. After that, the cells were washed with PBS and DMEM using the plate washer, and the solution of Hoechst 33342 and PI from the V-bottom plate was added (15 μL/well) to the cells in a final volume of 150 μL/well. After 15 min of incubation at 37 °C with 5% CO 2, the cells were washed and kept in clean FluoroBrite
(§5) DMEM. For live cell imaging, samples were kept at 37 °C with 5% CO 2 during the microscope imaging. The distribution of fluorescence stained cells was analyzed without fixing using an […]

HeLa Kyoto cells [2] = test: Relative viability (HOE/PI) in HCHT screening
Method: One advantage of HCHT imaging of cellular uptake compared to flow cytometry[38],[42],[43] is that it simultaneously gives information on toxicity and intracellular localization. […] Information on the intracellular localization of reporters can be quantified through segmentation of cellular compartments stained with specific markers.[52]
as §1
Relative cell viability ( RV) for each condition in the presence of inhibitors was calculated […]
of the relative cell viability ( RVrel) to the concentration of inhibitors ( cinhibitor ) was plotted and fitted with Equation (S19) to retrieve the concentration causing 50% cell growth inhibition (RV50) value and the Hill coefficient ( n).

in vitro = details: human
cathepsin B = cathepsin B (Homo sapiens, UniProt P07858); test: Cathepsin B inhibition (preliminary, not shown); type: biochemical; details: 50 μM; preliminary results
cathepsin L = cathepsin L (Homo sapiens, UniProt P07711); test: Cathepsin L inhibition (preliminary, not shown); type: biochemical; details: 50 μM; preliminary results
HK cells, transporter 28 = test: HCHT imaging: inhibition of cytosolic delivery of CTO transporter 28; type: cell-based, Human; parameters: key to inhibition of CTO 28 uptake (heatmap): –: −: inactive; ++: qualitative inhibition of SC2 uptake; details: for IC50 / IC15: Homo sapiens; for IC50: read-out: IC50 (concentration needed to reach 50% inhibition), transporter 28 5 μM; for IC50 / IC15 / MIC (concentration needed to reach 15% inhibition): inhibitor 1 h
Method: as §1, §2, §3, §4, §5

trypsin = test: Trypsin inhibition (preliminary, not shown); type: biochemical; details: 50 μM; preliminary results
[3] = test system: A549 human lung alveolar basal epithelium cells overexpressing ACE2 and TMPRSS2; details: inhibitor 5 μM
HeLa Kyoto cells [4] = details: with transporter 31; pre-incubation (P); cited from earlier work
HK cells, transporter 32 = test system: HK cells, transporter 32; parameters: method as in PMID 34173696; details: transporter 32 0.5 or 1 μM, pre-incubation (P), cited from earlier work; for IC50: read-out: IC50 (concentration needed to reach 50% inhibition)
HK cells, transporter 31 [5] = details: transporter 31 10 μM, pre-incubation (P), cited from earlier work; for IC50: read-out: IC50 (concentration needed to reach 50% inhibition)
[6] = Homo sapiens, 1 h, read-out: IC50 (concentration needed to reach 50% inhibition), transporter 31 10 μM, co-incubation (C)
[7] = Homo sapiens, 1 h, co-incubation (C)
[8] = with transporter 28, co-incubation (C)
[9] = with transporter 31, co-incubation (C)
[10] = 1 h, read-out: MIC (concentration needed to reach 15% inhibition), transporter 28 5 μM, co-incubation (C)
[11] = transporter 28 5 μM, co-incubation (C)
[12] = with transporter 28, pre-incubation (P)
[13] = transporter 28 5 μM, pre-incubation (P)

cathepsin L, sequence (P07711 114-333, species assumed): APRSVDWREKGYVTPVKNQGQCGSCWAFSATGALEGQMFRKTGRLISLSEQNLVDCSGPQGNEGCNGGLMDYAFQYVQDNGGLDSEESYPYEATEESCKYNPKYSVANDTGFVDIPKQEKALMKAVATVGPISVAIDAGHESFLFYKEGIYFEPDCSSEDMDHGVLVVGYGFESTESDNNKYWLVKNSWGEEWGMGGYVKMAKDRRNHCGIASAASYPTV

O=C(CO[C@H]1CSS(=O)(=O)C[C@@H]1O)NCCNC(=S)Nc1ccc(-c2c3ccc(=O)cc-3oc3cc(O)ccc23)c(C(=O)O)c1 [Compound 29]
cellular uptake, fluorescence intensity of HK cells (in words) (HeLa Kyoto (HK) cells): more active than the AspA 30 standard

CC(C)(C)OC(=O)NCCNC(=O)O[C@H]1CSS(=O)(=O)C[C@H]1O [Compound 34]
IC50 (HK cells, transporter 31 [1]; [6]): > 100 µM
IC15 (HK cells, transporter 31 [1]; [7]): 16 µM
IC15 (HK cells, transporter 31 [1]; Homo sapiens, 1 h, pre-incubation (P)): 3 µM
IC50 (HK cells, transporter 31 [1]; Homo sapiens, read-out: IC50 (concentration needed to reach 50% inhibition), transporter 31 10 μM, pre-incubation (P)): > 100 µM
MIC (concentration needed to reach 15% inhibition) (HK cells, transporter 31 [1]; transporter 31 10 μM, pre-incubation (P)): 3 µM (≈ 1.11 µg/mL)
RV50 (concentration needed to lower relative viability by 50%) (HeLa Kyoto cells [2]; [8]): >50 µM
RV50 (concentration needed to lower relative viability by 50%) (HeLa Kyoto cells [2]; [9]): >100 µM
RV50 (concentration needed to lower relative viability by 50%) (HeLa Kyoto cells [2]; with transporter 31, pre-incubation (P)): >100 µM
viability at 7 h, 50 µM (in vitro): 76%
inhibition of cathepsin B (in words) (cathepsin B): inhibit only cathepsin B
inhibition of cathepsin L (in words) (cathepsin L): inhibit only cathepsin B
IC50 (HK cells, transporter 28; 1 h, co-incubation (C)): 26 µM
IC15 (HK cells, transporter 28; [10]): 1.2 µM
MIC (concentration needed to reach 15% inhibition) (HK cells, transporter 28; [11]): 1 µM
inhibition of trypsin (in words) (trypsin): inhibit only cathepsin B

CC(C)(C)OC(=O)NCCNC(=O)O[C@H]1CSS(=O)(=O)C[C@H]1O[Si](C)(C)C(C)(C)C (racemic) [Compound 50]
IC50 (HK cells, transporter 31 [1]; read-out: IC50 (concentration needed to reach 50% inhibition), transporter 31 10 μM, co-incubation (C)): 20 ± 3 µM
MIC (concentration needed to reach 15% inhibition) (HK cells, transporter 31 [1]; transporter 31 10 μM, co-incubation (C)): 5.6 µM
RV50 (concentration needed to lower relative viability by 50%) (HeLa Kyoto cells [2]; [9]): ≈ 20 μM
RV, relative cell viability [3]: 110 ± 10%

CCN1C(=O)C2SSSSC1C(=O)N2CC(=O)O (centres unmarked) [Compound 47, reference compound]
RV50 (concentration needed to lower relative viability by 50%) (HeLa Kyoto cells [2]; [12]): >10 µM
viability at 7 h, 50 µM (in vitro): 70%
IC50 (HK cells, transporter 28; pre-incubation (P)): > 10 µM
IC15 (HK cells, transporter 28; read-out: MIC (concentration needed to reach 15% inhibition), transporter 28 5 μM, pre-incubation (P)): > 10 µM
inhibition of CTO 28 uptake (heatmap) (HK cells, transporter 28; pre-incubation conditions): –
MIC (concentration needed to reach 15% inhibition) (HK cells, transporter 28; [13]): >10 µM
RV50 (concentration needed to lower relative viability by 50%) (HeLa Kyoto cells [4]): 35 µM
IC50 (HK cells, transporter 32): 50 µM
MIC (concentration needed to reach 15% inhibition) (HK cells, transporter 32): 2 µM (≈ 0.653 µg/mL)
IC50 (HK cells, transporter 31 [5]): 1.3 µM

CC(=O)/C=C1/C(=O)N(C)c2ccccc21 [Compound 48, super-cinnamaldehyde, reference compound]
viability at 7 h, 5 µM (in vitro): 94%
RV50 (concentration needed to lower relative viability by 50%) (HeLa Kyoto cells [4]): >20 µM
IC50 (HK cells, transporter 31 [5]): 4 µM
MIC (concentration needed to reach 15% inhibition) (HK cells, transporter 31 [5]): <1 µM

CC(C)(C)[Si](C)(C)O[C@H]1CS(=O)(=O)SC[C@@H]1OCC(=O)NCCNC(=S)Nc1ccc(-c2c3ccc(=O)cc-3oc3cc(O)ccc23)c(C(=O)O)c1 [Compound 28]
cellular uptake, fluorescence intensity of HK cells (in words) (HeLa Kyoto (HK) cells): more active than the AspA 30 standard

CC#CI1OC(=O)c2ccccc21 [Compound 49, reference compound]
RV50 (concentration needed to lower relative viability by 50%) (HeLa Kyoto cells [2]; [12]): >50 µM
viability at 7 h, 5 µM (in vitro): 92%
IC15 (HK cells, transporter 28; 1 h, read-out: MIC (concentration needed to reach 15% inhibition), transporter 28 5 μM, pre-incubation (P)): 8.7 µM
IC50 (HK cells, transporter 28; pre-incubation (P)): 53 µM
MIC (concentration needed to reach 15% inhibition) (HK cells, transporter 28; [13]): 9 µM (≈ 2.57 µg/mL)
RV50 (concentration needed to lower relative viability by 50%) (HeLa Kyoto cells [4]): 60 µM
IC50 (HK cells, transporter 32): 10 µM
MIC (concentration needed to reach 15% inhibition) (HK cells, transporter 32): 0.3 µM (≈ 0.0858 µg/mL)
IC50 (HK cells, transporter 31 [5]): 40 µM
MIC (concentration needed to reach 15% inhibition) (HK cells, transporter 31 [5]): 4 µM (≈ 1.14 µg/mL)

O=C(N[C@H]1CCS(=O)(=O)SC1)N[C@H]1CCS(=O)(=O)SC1 [Compound 35]
IC50 (HK cells, transporter 31 [1]; [6]): 51 µM
IC15 (HK cells, transporter 31 [1]; [7]): 9 µM
RV50 (concentration needed to lower relative viability by 50%) (HeLa Kyoto cells [2]; [8]): >50 µM
RV50 (concentration needed to lower relative viability by 50%) (HeLa Kyoto cells [2]; [9]): >100 µM
viability at 7 h, 50 µM (in vitro): 96%
inhibition of cathepsin B (in words) (cathepsin B): inhibit only cathepsin B
inhibition of cathepsin L (in words) (cathepsin L): inhibit only cathepsin B
IC50 (HK cells, transporter 28; 1 h, co-incubation (C)): 25 µM
IC15 (HK cells, transporter 28; [10]): 3.5 µM
MIC (concentration needed to reach 15% inhibition) (HK cells, transporter 28; [11]): 4 µM
inhibition of trypsin (in words) (trypsin): inhibit only cathepsin B
